Key:
Cyperus iria = experiment: Preemergence weed control under flooded paddy conditions, CYPIR (Rice Flatsedge); format: in vivo; settings: flooded paddy; for CYPIR herbicidal effect rating / CYPIR herbicidal rating: preemergence, rated three to four weeks after treatment; for CYPIR: preemergence weeds, herbicidal effect rating 0-9, three to four weeks after treatment
[1] = system: Cyperus serotinus, Rottb.; experiment: Preemergence weed control under flooded paddy conditions, CYPSE (Flatsedge); format: in vivo; settings: for CYPSE herbicidal effect rating / CYPSE herbicidal rating: preemergence, rated three to four weeks after treatment; for CYPSE: preemergence weeds, herbicidal effect rating 0-9, three to four weeks after treatment
[2] = system: Monochoria vaginalis, Presl.; experiment: Preemergence weed control under flooded paddy conditions, MOOVA (Monochoria); format: in vivo; settings: flooded paddy; for MOOVA herbicidal effect rating / MOOVA herbicidal rating: preemergence, rated three to four weeks after treatment; for MOOVA: preemergence weeds, herbicidal effect rating 0-9, three to four weeks after treatment
[3] = system: Oryza sativa, (L.) Tebonnet; experiment: Rice tolerance to post-transplant applications under flooded paddy conditions (Example 187), ORYSAT (Rice, Tebonnet); settings: for ORYSAT herbicidal effect rating / ORYSAT herbicidal rating (rice tolerance): rated three to four weeks after treatment; for ORYSAT: herbicidal effect rating 0-9, three to four weeks after treatment
[4] = system: Echinochloa oryzoides (Ard.) Fritsch.; experiment: Preemergence weed control under flooded paddy conditions, ECHORC (Watergrass (Calif.)); format: in vivo; settings: flooded paddy; for ECHORC herbicidal effect rating / ECHORC herbicidal rating: preemergence, rated three to four weeks after treatment; for ECHORC: preemergence weeds, herbicidal effect rating 0-9, three to four weeks after treatment
Sagittaria pygmaea, L. = experiment: Preemergence weed control under flooded paddy conditions, SAGPY (Arrowhead (Pygmaea)); format: in vivo; settings: flooded paddy; for SAGPY herbicidal effect rating / SAGPY herbicidal rating: preemergence, rated three to four weeks after treatment; for SAGPY: preemergence weeds, herbicidal effect rating 0-9, three to four weeks after treatment

SMILES: C#CCOC(=O)COc1ccc(-c2nsc3ccc(-n4c(=O)cc(C(F)(F)F)n(C)c4=O)cc23)cc1 [Example 259, Acetic acid, [p-{5-[3,6-dihydro-3-methyl-2,6-dioxo-4-(trifluoromethyl)-1(2H)-pyrimidinyl]-1,2-benzisothiazol-3-yl}phenoxy)-, 2-propynyl ester]
- CYPIR herbicidal effect rating (Cyperus iria; Rate 0.0320 kg/ha): 0.0
- CYPIR herbicidal effect rating (Cyperus iria; Rate 0.0620 kg/ha): 2.0
- CYPIR herbicidal effect rating (Cyperus iria; Rate 0.1250 kg/ha): 4.0
- CYPIR herbicidal effect rating (Cyperus iria; Rate 0.2500 kg/ha): 4.0
- CYPSE herbicidal effect rating ([1]; Rate 0.0320 kg/ha): 0.0
- CYPSE herbicidal effect rating ([1]; Rate 0.0620 kg/ha): 0.0
- MOOVA herbicidal effect rating ([2]; Rate 0.0320 kg/ha): 6.0
- MOOVA herbicidal effect rating ([2]; Rate 0.0620 kg/ha): 9.0
- MOOVA herbicidal effect rating ([2]; Rate 0.1250 kg/ha): 9.0
- MOOVA herbicidal effect rating ([2]; Rate 0.2500 kg/ha): 9.0
- ORYSAT herbicidal effect rating ([3]; Rate 0.0320 kg/ha): 1.0
- ORYSAT herbicidal effect rating ([3]; Rate 0.0620 kg/ha): 1.0
- ORYSAT herbicidal effect rating ([3]; Rate 0.1250 kg/ha): 2.0
- ORYSAT herbicidal effect rating ([3]; Rate 0.2500 kg/ha): 3.0
- ECHORC herbicidal effect rating ([4]; Rate 0.0320 kg/ha): 0.0
- ECHORC herbicidal effect rating ([4]; Rate 0.0620 kg/ha): 0.0
- ECHORC herbicidal effect rating ([4]; Rate 0.1250 kg/ha): 0.0
- ECHORC herbicidal effect rating ([4]; Rate 0.2500 kg/ha): 2.0
- SAGPY herbicidal effect rating (Sagittaria pygmaea, L.; Rate 0.0320 kg/ha): 0.0
- SAGPY herbicidal effect rating (Sagittaria pygmaea, L.; Rate 0.0620 kg/ha): 0.0
- SAGPY herbicidal effect rating (Sagittaria pygmaea, L.; Rate 0.1250 kg/ha): 0.0
- SAGPY herbicidal effect rating (Sagittaria pygmaea, L.; Rate 0.2500 kg/ha): 0.0

SMILES: COC(=O)COc1c(-c2nsc3ccc(-n4c(=O)cc(C(F)(F)F)n(C)c4=O)cc23)ccc(C)c1C [Example 274, Acetic acid, {{6-{5-[3,6-dihydro-3-methyl-2,6-dioxo-4-(trifluoromethyl)-1(2H)-pyrimidinyl]-1,2-benzisothiazol-3-yl}-2,3-xylyl}oxy}-, methyl ester]
- CYPIR herbicidal effect rating (Cyperus iria; Rate 0.0320 kg/ha): 7.0
- CYPIR herbicidal effect rating (Cyperus iria; Rate 0.0620 kg/ha): 8.0
- CYPIR herbicidal effect rating (Cyperus iria; Rate 0.1250 kg/ha): 9.0
- CYPIR herbicidal effect rating (Cyperus iria; Rate 0.2500 kg/ha): 9.0
- CYPIR herbicidal effect rating (Cyperus iria; Rate 0.5000 kg/ha): 2.0
- CYPSE herbicidal effect rating ([1]; Rate 0.0320 kg/ha): 0.0
- CYPSE herbicidal effect rating ([1]; Rate 0.0620 kg/ha): 2.0
- CYPSE herbicidal effect rating ([1]; Rate 0.1250 kg/ha): 8.0
- CYPSE herbicidal effect rating ([1]; Rate 0.2500 kg/ha): 9.0
- CYPSE herbicidal effect rating ([1]; Rate 0.5000 kg/ha): 9.0
- MOOVA herbicidal effect rating ([2]; Rate 0.0320 kg/ha): 9.0
- MOOVA herbicidal effect rating ([2]; Rate 0.0620 kg/ha): 9.0
- MOOVA herbicidal effect rating ([2]; Rate 0.1250 kg/ha): 9.0
- MOOVA herbicidal effect rating ([2]; Rate 0.2500 kg/ha): 9.0
- MOOVA herbicidal effect rating ([2]; Rate 0.5000 kg/ha): 9.0
- ORYSAT herbicidal effect rating ([3]; Rate 0.0320 kg/ha): 2.0
- ORYSAT herbicidal effect rating ([3]; Rate 0.0620 kg/ha): 4.0
- ORYSAT herbicidal effect rating ([3]; Rate 0.1250 kg/ha): 4.0
- ORYSAT herbicidal effect rating ([3]; Rate 0.2500 kg/ha): 8.0
- ORYSAT herbicidal effect rating ([3]; Rate 0.5000 kg/ha): 7.0
- ECHORC herbicidal effect rating ([4]; Rate 0.0320 kg/ha): 3.3
- ECHORC herbicidal effect rating ([4]; Rate 0.0620 kg/ha): 4.1
- ECHORC herbicidal effect rating ([4]; Rate 0.1250 kg/ha): 5.9
- ECHORC herbicidal effect rating ([4]; Rate 0.2500 kg/ha): 9.0
- ECHORC herbicidal effect rating ([4]; Rate 0.5000 kg/ha): 9.0
- SAGPY herbicidal effect rating (Sagittaria pygmaea, L.; Rate 0.0320 kg/ha): 0.0
- SAGPY herbicidal effect rating (Sagittaria pygmaea, L.; Rate 0.0620 kg/ha): 0.0
- SAGPY herbicidal effect rating (Sagittaria pygmaea, L.; Rate 0.1250 kg/ha): 4.0
- SAGPY herbicidal effect rating (Sagittaria pygmaea, L.; Rate 0.2500 kg/ha): 9.0
- SAGPY herbicidal effect rating (Sagittaria pygmaea, L.; Rate 0.5000 kg/ha): 4.0

SMILES: CC(C)OP(=O)(Cc1nsc2ccc(-n3c(=O)cc(C(F)(F)F)n(C)c3=O)cc12)OC(C)C [Example 263, 1,2-Benzisothiazole-3-methanephosphonic acid, 5-[3,6-dihydro-3-methyl-2,6-dioxo-4-(trifluoromethyl)-1(2H)-pyrimidinyl]-, diisopropyl ester]
- CYPIR herbicidal effect rating (Cyperus iria; Rate 0.0320 kg/ha): 4.0
- CYPIR herbicidal effect rating (Cyperus iria; Rate 0.0620 kg/ha): 7.0
- CYPIR herbicidal effect rating (Cyperus iria; Rate 0.1250 kg/ha): 9.0
- CYPIR herbicidal effect rating (Cyperus iria; Rate 0.2500 kg/ha): 9.0
- CYPSE herbicidal effect rating ([1]; Rate 0.0320 kg/ha): 9.0
- CYPSE herbicidal effect rating ([1]; Rate 0.0620 kg/ha): 9.0
- CYPSE herbicidal effect rating ([1]; Rate 0.1250 kg/ha): 9.0
- CYPSE herbicidal effect rating ([1]; Rate 0.2500 kg/ha): 9.0
- MOOVA herbicidal effect rating ([2]; Rate 0.0320 kg/ha): 0.0
- MOOVA herbicidal effect rating ([2]; Rate 0.0620 kg/ha): 0.0
- MOOVA herbicidal effect rating ([2]; Rate 0.1250 kg/ha): 6.0
- MOOVA herbicidal effect rating ([2]; Rate 0.2500 kg/ha): 9.0
- ORYSAT herbicidal effect rating ([3]; Rate 0.0320 kg/ha): 0.0
- ORYSAT herbicidal effect rating ([3]; Rate 0.0620 kg/ha): 0.0
- ORYSAT herbicidal effect rating ([3]; Rate 0.1250 kg/ha): 0.0
- ORYSAT herbicidal effect rating ([3]; Rate 0.2500 kg/ha): 4.0
- ECHORC herbicidal effect rating ([4]; Rate 0.0320 kg/ha): 0.0
- ECHORC herbicidal effect rating ([4]; Rate 0.0620 kg/ha): 0.0
- ECHORC herbicidal effect rating ([4]; Rate 0.1250 kg/ha): 0.0
- ECHORC herbicidal effect rating ([4]; Rate 0.2500 kg/ha): 2.0
- SAGPY herbicidal effect rating (Sagittaria pygmaea, L.; Rate 0.0320 kg/ha): 0.0
- SAGPY herbicidal effect rating (Sagittaria pygmaea, L.; Rate 0.0620 kg/ha): 0.0
- SAGPY herbicidal effect rating (Sagittaria pygmaea, L.; Rate 0.1250 kg/ha): 0.0
- SAGPY herbicidal effect rating (Sagittaria pygmaea, L.; Rate 0.2500 kg/ha): 0.0

SMILES: Cn1c(C(F)(F)F)cc(=O)n(-c2ccc3snc(COC4CCCCO4)c3c2)c1=O (centres unmarked) [Example 456, 2,4(1H,3H)-Pyrimidinedione, 1-methyl-3-{3-{[(tetrahydro-2H-pyran-2-yl)oxy]methyl}-1,2-benzisothiazol-5-yl}-6-(trifluoromethyl)-]
- CYPIR (Cyperus iria; 0.0320 kg/ha): 0.0
- CYPIR (Cyperus iria; 0.0620 kg/ha): 4.0
- CYPIR (Cyperus iria; 0.1250 kg/ha): 6.0
- CYPIR (Cyperus iria; 0.2500 kg/ha): 6.0
- CYPSE ([1]; 0.0320 kg/ha): 0.0
- CYPSE ([1]; 0.0620 kg/ha): 0.0
- CYPSE ([1]; 0.1250 kg/ha): 2.0
- CYPSE ([1]; 0.2500 kg/ha): 4.0
- MOOVA ([2]; 0.0320 kg/ha): 7.0
- MOOVA ([2]; 0.0620 kg/ha): 9.0
- MOOVA ([2]; 0.1250 kg/ha): 9.0
- MOOVA ([2]; 0.2500 kg/ha): 9.0
- ORYSAT ([3]; 0.0320 kg/ha): 7.0
- ORYSAT ([3]; 0.0620 kg/ha): 8.0
- ORYSAT ([3]; 0.1250 kg/ha): 8.0
- ORYSAT ([3]; 0.2500 kg/ha): 9.0
- ECHORC ([4]; 0.0320 kg/ha): 4.0
- ECHORC ([4]; 0.0620 kg/ha): 6.0
- ECHORC ([4]; 0.1250 kg/ha): 7.0
- ECHORC ([4]; 0.2500 kg/ha): 9.0
- SAGPY (Sagittaria pygmaea, L.; 0.0320 kg/ha): 0.0
- SAGPY (Sagittaria pygmaea, L.; 0.0620 kg/ha): 0.0
- SAGPY (Sagittaria pygmaea, L.; 0.1250 kg/ha): 2.0
- SAGPY (Sagittaria pygmaea, L.; 0.2500 kg/ha): 4.0

SMILES: COC(=O)COc1cc(Cl)c(C)cc1-c1nsc2ccc(-n3c(=O)cc(C(F)(F)F)n(C)c3=O)cc12 [Example 493, Acetic acid, {{5-chloro-2-{5-[3,6-dihydro-3-methyl-2,6-dioxo-4-(trifluoromethyl)-1(2H)-pyrimidinyl]-1,2-benzisothiazol-3-yl}-p-tolyl}oxy}-, methyl ester]
- CYPIR herbicidal rating (Cyperus iria; 0.0320 kg/ha): 4.0
- CYPIR herbicidal rating (Cyperus iria; 0.0620 kg/ha): 6.0
- CYPIR herbicidal rating (Cyperus iria; 0.1250 kg/ha): 7.0
- CYPIR herbicidal rating (Cyperus iria; 0.2500 kg/ha): 9.0
- CYPSE herbicidal rating ([1]; 0.1250 kg/ha): 9.0
- CYPSE herbicidal rating ([1]; 0.2500 kg/ha): 9.0
- MOOVA herbicidal rating ([2]; 0.0320 kg/ha): 5.0
- MOOVA herbicidal rating ([2]; 0.0620 kg/ha): 7.0
- MOOVA herbicidal rating ([2]; 0.1250 kg/ha): 7.0
- MOOVA herbicidal rating ([2]; 0.2500 kg/ha): 9.0
- ORYSAT herbicidal rating (rice tolerance) ([3]; 0.0320 kg/ha): 2.0
- ORYSAT herbicidal rating (rice tolerance) ([3]; 0.0620 kg/ha): 2.0
- ORYSAT herbicidal rating (rice tolerance) ([3]; 0.1250 kg/ha): 3.0
- ORYSAT herbicidal rating (rice tolerance) ([3]; 0.2500 kg/ha): 3.0
- ECHORC herbicidal rating ([4]; 0.0320 kg/ha): 4.0
- ECHORC herbicidal rating ([4]; 0.0620 kg/ha): 5.0
- ECHORC herbicidal rating ([4]; 0.1250 kg/ha): 9.0
- ECHORC herbicidal rating ([4]; 0.2500 kg/ha): 9.0
- SAGPY herbicidal rating (Sagittaria pygmaea, L.; 0.0320 kg/ha): 0.0
- SAGPY herbicidal rating (Sagittaria pygmaea, L.; 0.0620 kg/ha): 0.0
- SAGPY herbicidal rating (Sagittaria pygmaea, L.; 0.1250 kg/ha): 0.0
- SAGPY herbicidal rating (Sagittaria pygmaea, L.; 0.2500 kg/ha): 3.0
